Patent US10086090B2, “Indocyanine compound, synthesis method and purification method thereof, diagnostic composition using the indocyanine compound, and device for measuring biokinetics and device for visualizing circulation using the diagnostic composition” (NATIONAL UNIVERSITY CORPORATION MIE UNIVERSITY, priority 2010, dated 2018)

What was measured:
[1] = Fluorescence in aqueous solution; type: physicochemical; details: 0.1 μM aqueous solution, 25° C., 720 nm excitation; relative to ICG 0.13 in DMSO
Protocol: The fluorescence of ICG and the cyclodextrin-bonded indocyanine compounds of the present invention (the chemical formulae 16, 20, 21, and 23 to 25) in an aqueous solution was studied. A 0.1 μM aqueous solution including ICG or each of the cyclodextrin-bonded indocyanine compounds of the present invention (the chemical formulae 16, 20, 21, and 23 to 25) was put in a 1 cm square quartz cell at 25° C., which was excited with 720 nm excitation light (bandpass: 10 nm), and a fluorescence spectrum (bandpass: 10 nm) was measured. A fluorescence efficiency was calculated based on a fluorescence efficiency of ICG, 0.13 (in DMSO, at 25° C.). […] The fluorescence quantum efficiencies thereof were respectively 2.6-fold and 2-fold of that of ICG.

[2] = Luminance of dorsalis pedis in λ-carrageenin edema rats (acute inflammation experiment); type: in vivo, rat
Protocol: Rats (male, Wister rat) which were 10-week old and about 350 g were selected as a test animal (n=4). The rat was generally anesthetized with isoflurane, and 0.1 mL of 0.5% […] was injected to a left posterior footpad using a 26 G needle, thus resulting quick generation of edema on the foot. After 15 minutes, a volume of the left foot of the rat was measured using a rat footpad volume-measuring device (MK-101 CMP PLETHYSMOMETER manufactured by Muromachi Kikai Co., Ltd.).
After that, the isoflurane was off and the emergence of the rat was confirmed. After Von Frey test was performed, the rat was generally anesthetized with isoflurane again. […]
A moiety (ROI) to be measured by the PDE camera was set at a central part of the dorsalis pedis and light was turned off. […] After that, luminance was measured for one minute at 5 minute-intervals and the measurement was continued until 120 minutes from the infusion. […]
After 7 days, a Von Frey test was performed and then the rat was quickly generally anesthetized with isoflurane, and the volume of the left foot of the rat was measured by using the rat footpad volume-measuring device. […] After that, luminance was measured for one minute at 5 minute-intervals and the measurement was continued until 120 minutes from the infusion. […]

[3] = Solubility tests in water or physiological saline; type: physicochemical; details: powder
Protocol: Solubility tests of ICG and the cyclodextrin-bonded indocyanine compounds of the present invention (the chemical formulae 16, 20, 21, and 23 to 25) in water or physiological saline were performed.

[4] = in DMSO, at 25° C.; cited from earlier work
[5] = Ischemia model of lower limbs (ligation of right femoral artery); type: in vivo; details: rat
Excerpt: As apparent from the image view 12, the state in which the fluorescence was emitted in accordance with the blood flow was clear in the dorsal region of foot.

[6] = cited from earlier work
[7] = Molecule association in aqueous solution (optical absorption spectrum); type: physicochemical; details: 0.01 mM to 0.1 mM aqueous solutions, 25° C., absorption 600 nm to 1000 nm
Protocol: The molecule association of ICG and the cyclodextrin-bonded indocyanine compounds of the present invention (the chemical formulae 16, 20, 21, and 23 to 25) in an aqueous solution was studied. Each of 0.01 mM, 0.025 mM, 0.05 mM, and 0.1 mM aqueous solutions including ICG or the cyclodextrin-bonded indocyanine compound of the present invention (each chemical formula 16, 20, 21, and 23 to 25) was prepared, it was put in a quartz cell having a length of an optical path of 1 mm, and an optical absorption spectrum at 600 nm to 1000 nm was measured at 25° C.

[8] = Observation at blood vessel level (cremaster skin flap); type: in vivo; details: rat, exposed blood vessel
Protocol: ICG or TK1 was administered in a state in which a blood vessel of a rat was directly exposed and observed by methods disclosed in Non Patent Documents 7 and 8 (FIG. 15), and a state of a cremaster skin flap after the exposure is shown in FIG. 16. ICG or TK1 was administered in the state in which the blood vessel was exposed, and the observation was performed. As a result, it was observed that ICG was unevenly distributed in the blood vessel, compared to TK1. […] In order to more precisely study it, photomicrographs of the blood vessel after the administration are shown in FIG. 17 (ICG) and FIG. 18 (TK1).

[9] = Fluorescence in blood (surface fluorescence spectrum); details: 100 μM in blood (human), 25° C., 760 nm excitation
Protocol: The fluorescence of ICG and the cyclodextrin-bonded indocyanine compounds of the present invention (the chemical formulae 16, 20, 21, and 23 to 25) in blood was studied. ICG and the cyclodextrin-bonded indocyanine compounds of the present invention (the chemical formulae 16, 20, 21, and 23 to 25) were respectively dissolved in blood (human) in a concentration of 100 μM. The resulting blood was put in a triangular quartz cell at 25° C., which was excited with 760 nm excitation light (bandpass: 10 nm), and a surface fluorescence spectrum (bandpass: 10 nm) was measured. […] The cyclodextrin-bonded indocyanine compounds of the present invention, in particular, the compounds represented by the chemical formula 16 and the chemical formula 20 had respectively fluorescence intensities of 270 (arbitrary unit) and 190 (arbitrary unit), which were 4.7-fold and 3.3-fold of that of ICG. It could be considered that this is caused because the emission of light from the cyclodextrin-bonded indocyanine compound of the present invention was not hindered in the living body.

[10] = Observation of distribution in rat body (caudate vein administration, PDE camera); type: in vivo
Protocol: Left is a monochrome image through visible light, and right is a fluorescence image.
After Wistar male rat (9-week old, a body weight of 350 g) was ether-anesthetized, 0.1 mL of Nembutal was intraperitoneally administered using a 26 G needle to perform the anesthesia. A base of the rat's tail was wrapped tightly with a rubber band to prevent the flow of blood, and the caudate vein was secured with a 24 G Therflow needle and a peripheral line were secured by inserting a three-way stopcock and an extension tube. The rat was fixed on a flat stand in a supine position (FIG. 8). A PDE camera unit manufactured by Hamamatsu Photonics K.K. was set at exactly 16 cm from the body of the rat. When the whole body was extensively photographed, the distance was 20 cm. The observation range was an about range shown by black dots in FIG. 8. After that, ICG, TK1 or TK2 was administered in a concentration of 1 mM from the peripheral line secured. The administration amount was 0.1 mL. After 20 minutes from the administration, the fluorescence state of the abdominal cavity which was opened is shown in FIG. 9, and the fluorescence state (images at the maximum luminance) of the dorsal region of foot was shown in FIG. 12.
In addition, a time reaching the maximum fluorescence intensity value (Imax), Imax value and a time at which the value reached a half of the Imax value (t1/2) are shown in Table 1.

[11] = rat dorsal region of foot, 1 mM 0.1 mL caudate vein

CC1(C)C(/C=C/C=C/C=C/C=C2\N(CCCCS(=O)(=O)O)c3ccc4ccccc4c3C2(C)C)=[N+](CCCCS(=O)(=O)[O-])c2ccc3ccccc3c21 [ICG, indocyanine green]
fluorescence quantum efficiency [1]: 0.021 | time for luminance in ROI to decrease to the base line ([2]; rat dorsalis pedis, 0.1 mL caudate vein): about 10 minutes | luminance change of dorsalis pedis, λ-carrageenin group versus control ([2]; rat, dye infused after λ-carrageenin injection, interstitial tissue phase): the difference in the luminance was not observed | dissolving in water or physiological saline (need for vibration-stirring) [3]: About one minute violent vibration-stirring was necessary | fluorescence efficiency (reference value) [4]: 0.13 | fluorescence in the ischemia area [5]: the fluorescence was not observed in the ischemia area | organ of accumulation (as already known) [6]: highly accumulated in liver | molecule association called H-aggregation [7]: occurred | transfer from the blood vessel into the interstitial tissue fluid [8]: hardly transferred from the blood vessel into the interstitial tissue fluid | fluorescence intensity at the maximum fluorescence wavelength [9]: 58 arbitrary unit | organ of main accumulation ([10]; Wistar rat, 1 mM 0.1 mL caudate vein, 20 minutes after administration, abdominal cavity opened): mainly accumulated in the liver | half-life ([10]; male, Wistar, intravenous, 0.1 mL of 1 mM solution, rat dorsal region of foot, 1 mM 0.1 mL caudate vein, read-out: t1/2 (time at which the value reached a half of the Imax value)): 2.3 min | time after administration until fluorescence intensity was reduced to about initial value ([10]; rat dorsal region of foot): less than 10 minutes | Imax* (maximum fluorescence intensity value) [10, 11]: 124 | Time for Imax (time reaching the maximum fluorescence intensity value) [10, 11]: 0.5 min
